Measurements: patent US20230107941A1, “HEPATITIS B CAPSID ASSEMBLY MODULATORS” (Venatorx Pharmaceuticals, Inc., priority 2019, published 2023)
Like-named read-outs stand apart in the source and are kept apart here.

Key:
HBV = assay: In vitro antiviral assay: anti-HBV replication in HepAD38 cells (extracellular HBV DNA by QPCR); assay type: cell-based, hepatitis B virus (genotype D, serotype ayw); conditions: 7 days incubation, extracellular HBV DNA by QPCR, read-out: Anti-HBV EC50
Outline: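 Read-out is extracellular HBV DNA (copies/mL, QPCR standard curve) after 7-day exposure of tet-free HepAD38 cells to 10-fold dilutions from 1 μM down to 10 pM. Values normalised to DMSO vehicle; EC50 from 4-parameter nonlinear regression, with entecavir validating each run.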

[1] = In vitro cytotoxicity assay (MTT cell viability) in HepG2 cells; assay type: cell-based, human; conditions: human
Outline: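 CC50 was derived by 4-parameter fit of viability relative to vehicle controls, measured as MTT formazan absorbance at 492 nm after 3–4 h of reagent and DMSO solubilization. Before that, HepG2 cells seeded overnight at 20,000/well were incubated 7 days at 37°C with compound from 30 μM down to 1.0 nM in half-log steps.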

[2] = Hepatitis B virus, HePAD38, 168 h

Row | SMILES | EC50 (HBV; [2]) | CC50 at 7 days [1] | EC50 (HBV)
1 | Cc1cc(NC(=O)c2c(C)c(C(=O)C(=O)Nc3ccccc3N3CCOCC3)n(C)c2C)ccc1F [Example 52, N-(4-fluoro-3-methylphenyl)-1,2,4-trimethyl-5-(2-((2-morpholinophenyl)amino)-2-oxoacetyl)-1H-pyrrole-3-carboxamide] | 50 to 499 nM | 5000 to 30000 nM | –
2 | Cc1cc(NC(=O)c2c(C)c(C(=O)C(=O)Nc3cccnc3N3CCOCC3)n(C)c2C)ccc1F [Example 53, N-(4-fluoro-3-methylphenyl)-1,2,4-trimethyl-5-(2-((2-morpholinopyridin-3-yl)amino)-2-oxoacetyl)-1H-pyrrole-3-carboxamide] | < 50 nM | > 30000 nM | –
3 | Cc1cc(NC(=O)c2c(C)c(C(=O)C(=O)Nc3ccncc3N3CCOCC3)n(C)c2C)ccc1F [Example 54, N-(4-fluoro-3-methylphenyl)-1,2,4-trimethyl-5-(2-((3-morpholinopyridin-4-yl)amino)-2-oxoacetyl)-1H-pyrrole-3-carboxamide] | 500 to 1000 nM | > 30000 nM | –
4 | COC(=O)c1cc(NC(=O)c2c(C)c(C(=O)C(=O)NC(C)(C)C)n(C)c2C)ccc1F [Example 55, methyl 5-(5-(2-(tert-butylamino)-2-oxoacetyl)-1,2,4-trimethyl-1H-pyrrole-3-carboxamido)-2-fluorobenzoate] | > 1000 nM | > 30000 nM | –
5 | Cc1c(C(=O)Nc2ccc(F)c(C(=O)O)c2)c(C)n(C)c1C(=O)C(=O)NC(C)(C)C [Example 56, 5-(5-(2-(tert-butylamino)-2-oxoacetyl)-1,2,4-trimethyl-1H-pyrrole-3-carboxamido)-2-fluorobenzoic acid] | 500 to 1000 nM | > 30000 nM | –
6 | Cc1c(C(=O)Nc2ccc(F)c(C(N)=O)c2)c(C)n(C)c1C(=O)C(=O)NC(C)(C)C [Example 57, 5-(2-(tert-butylamino)-2-oxoacetyl)-N-(3-carbamoyl-4-fluorophenyl)-1,2,4-trimethyl-1H-pyrrole-3-carboxamide] | > 1000 nM | > 30000 nM | –
7 | Cc1c(C(=O)NCc2noc(C(F)(F)F)n2)c(C)n(C)c1C(=O)C(=O)NC(C)(C)C [Example 58, 5-(2-(tert-butylamino)-2-oxoacetyl)-1,2,4-trimethyl-N-((5-(trifluoromethyl)-1,2,4-oxadiazol-3-yl)methyl)-1H-pyrrole-3-carboxamide] | > 1000 nM | > 30000 nM | –
8 | Cc1c(C(=O)Nc2ccc(F)c(C#N)c2)c(C)n(C)c1C(=O)C(=O)NC(C)(C)C [Example 59, 5-(2-(tert-butylamino)-2-oxoacetyl)-N-(3-cyano-4-fluorophenyl)-1,2,4-trimethyl-1H-pyrrole-3-carboxamide] | < 50 nM | > 30000 nM | –
9 | Cc1c(C(=O)Nc2ccc(F)c(Br)c2)c(C)n(C)c1C(=O)C(=O)NC(C)(C)C [Example 60, N-(3-bromo-4-fluorophenyl)-5-(2-(tert-butylamino)-2-oxoacetyl)-1,2,4-trimethyl-1H-pyrrole-3-carboxamide] | < 50 nM | > 30000 nM | –
10 | Cc1c(C(=O)N2CCC(C)(O)CC2)c(C)n(C)c1C(=O)C(=O)NC(C)(C)C [Example 61, N-(tert-butyl)-2-(4-(4-hydroxy-4-methylpiperidine-1-carbonyl)-1,3,5-trimethyl-1H-pyrrol-2-yl)-2-oxoacetamide] | 500 to 1000 nM | > 30000 nM | –
11 | Cc1c(C(=O)Nc2ccc(N3CCOCC3)nc2)c(C)n(C)c1C(=O)C(=O)NC(C)(C)C [Example 62, 5-(2-(tert-butylamino)-2-oxoacetyl)-1,2,4-trimethyl-N-(6-morpholinopyridin-3-yl)-1H-pyrrole-3-carboxamide] | > 1000 nM | > 30000 nM | –
12 | Cc1cc(NC(=O)c2c(C)c(C(=O)C(=O)NC3(C)CC(OP(=O)(O)O)C3)n(C)c2C)ccc1F (stereo not drawn) [Example 63, (1s,3s)-3-(2-(4-((4-fluoro-3-methylphenyl)carbamoyl)-1,3,5-trimethyl-1H-pyrrol-2-yl)-2-oxoacetamido)-3-methylcyclobutyl dihydrogen phosphate] | – | > 30000 nM | > 1000 nM
13 | Cc1c(C(=O)Nc2cccc(S(N)(=O)=O)c2)c(C)n(C)c1C(=O)C(=O)NC(C)(C)C [Example 65, 5-(2-(tert-butylamino)-2-oxoacetyl)-1,2,4-trimethyl-N-(3-sulfamoylphenyl)-1H-pyrrole-3-carboxamide] | > 1000 nM | > 30000 nM | –
14 | Cc1cccc(NC(=O)c2c(C)c(C(=O)C(=O)NC(C)(C)C)n(C)c2C)c1F [Example 66, 5-(2-(tert-butylamino)-2-oxoacetyl)-N-(2-fluoro-3-methylphenyl)-1,2,4-trimethyl-1H-pyrrole-3-carboxamide] | < 50 nM | > 30000 nM | –
15 | Cc1cc(F)cc(NC(=O)c2c(C)c(C(=O)C(=O)NC(C)(C)C)n(C)c2C)c1 [Example 67, 5-(2-(tert-butylamino)-2-oxoacetyl)-N-(3-fluoro-5-methylphenyl)-1,2,4-trimethyl-1H-pyrrole-3-carboxamide] | < 50 nM | > 30000 nM | –
16 | Cc1ccc(F)c(NC(=O)c2c(C)c(C(=O)C(=O)NC(C)(C)C)n(C)c2C)c1 [Example 68, 5-(2-(tert-butylamino)-2-oxoacetyl)-N-(2-fluoro-5-methylphenyl)-1,2,4-trimethyl-1H-pyrrole-3-carboxamide] | < 50 nM | > 30000 nM | –
17 | Cc1c(C(=O)Nc2ccc(F)c(S(C)(=O)=O)c2)c(C)n(C)c1C(=O)C(=O)NC(C)(C)C [Example 69, 5-(2-(tert-butylamino)-2-oxoacetyl)-N-(4-fluoro-3-(methylsulfonyl)phenyl)-1,2,4-trimethyl-1H-pyrrole-3-carboxamide] | > 1000 nM | > 30000 nM | –
18 | CC(=O)N1CCC(CO)(NC(=O)C(=O)c2c(C)c(C(=O)Nc3ccc(F)c(C)c3)c(C)n2C)CC1 [Example 72, 5-(2-((1-acetyl-4-(hydroxymethyl)piperidin-4-yl)amino)-2-oxoacetyl)-N-(4-fluoro-3-methylphenyl)-1,2,4-trimethyl-1H-pyrrole-3-carboxamide] | < 50 nM | > 30000 nM | –
19 | Cc1cc(NC(=O)c2c(C)c(C(=O)C(=O)NC3(CO)CCN(S(C)(=O)=O)CC3)n(C)c2C)ccc1F [Example 73, N-(4-fluoro-3-methylphenyl)-5-(2-((4-(hydroxymethyl)-1-(methylsulfonyl)piperidin-4-yl)amino)-2-oxoacetyl)-1,2,4-trimethyl-1H-pyrrole-3-carboxamide] | < 50 nM | > 30000 nM | –
20 | Cc1cc(NC(=O)c2c(C)c(C(=O)C(=O)NC3(CO)CCN(C(=O)c4cnn(C)c4)CC3)n(C)c2C)ccc1F [Example 74, N-(4-fluoro-3-methylphenyl)-5-(2-((4-(hydroxymethyl)-1-(1-methyl-1H-pyrazole-4-carbonyl)piperidin-4-yl)amino)-2-oxoacetyl)-1,2,4-trimethyl-1H-pyrrole-3-carboxamide] | < 50 nM | > 30000 nM | –
21 | Cc1cc(NC(=O)c2c(C)c(C(=O)C(=O)NC3(CO)CCN(C(=O)c4cn(C)nc4C(F)F)CC3)n(C)c2C)ccc1F [Example 75, 5-(2-((1-(3-(difluoromethyl)-1-methyl-1H-pyrazole-4-carbonyl)-4-(hydroxymethyl)piperidin-4-yl)amino)-2-oxoacetyl)-N-(4-fluoro-3-methylphenyl)-1,2,4-trimethyl-1H-pyrrole-3-carboxamide] | < 50 nM | > 30000 nM | –
22 | Cc1cc(NC(=O)c2c(C)c(C(=O)C(=O)NC3(CO)CCN(C(=O)c4ccnn4C)CC3)n(C)c2C)ccc1F [Example 76, N-(4-fluoro-3-methylphenyl)-5-(2-((4-(hydroxymethyl)-1-(1-methyl-1H-pyrazole-5-carbonyl)piperidin-4-yl)amino)-2-oxoacetyl)-1,2,4-trimethyl-1H-pyrrole-3-carboxamide] | < 50 nM | > 30000 nM | –
23 | Cc1c(C(=O)Nc2cccc(Cl)n2)c(C)n(C)c1C(=O)C(=O)N[C@H](C)C(F)(F)F [Example 77, (R)-N-(6-chloropyridin-2-yl)-1,2,4-trimethyl-5-(2-oxo-2-((1,1,1-trifluoropropan-2-yl)amino)acetyl)-1H-pyrrole-3-carboxamide] | 50 to 499 nM | > 30000 nM | –
24 | CC(=O)N1CC[C@H](NC(=O)C(=O)c2c(C)c(C(=O)Nc3ccc(F)c(C)c3)c(C)n2C)C[C@H]1C [Example 78, 5-(2-(((2R,4S)-1-acetyl-2-methylpiperidin-4-yl)amino)-2-oxoacetyl)-N-(4-fluoro-3-methylphenyl)-1,2,4-trimethyl-1H-pyrrole-3-carboxamide] | < 50 nM | > 30000 nM | –
25 | Cc1c(C(=O)Nc2cc(Cl)cc(Cl)c2)c(C)n(C)c1C(=O)C(=O)N[C@H](C)C(F)(F)F [Example 79, (R)-N-(3,5-dichlorophenyl)-1,2,4-trimethyl-5-(2-oxo-2-((1,1,1-trifluoropropan-2-yl)amino)acetyl)-1H-pyrrole-3-carboxamide] | < 50 nM | 5000 to 30000 nM | –
26 | Cc1cc(NC(=O)c2c(C)c(C(=O)C(=O)NC34CC(C3)C4)n(C)c2C)ccc1F [Example 80, 5-(2-(bicyclo[1.1.1]pentan-1-ylamino)-2-oxoacetyl)-N-(4-fluoro-3-methylphenyl)-1,2,4-trimethyl-1H-pyrrole-3-carboxamide] | < 50 nM | 5000 to 30000 nM | –
27 | Cc1cc(NC(=O)c2c(C)c(C(=O)C(=O)NC3(C)CNC(=O)C34CC4)n(C)c2C)ccc1F (stereo not drawn) [Example 81, N-(4-fluoro-3-methylphenyl)-1,2,4-trimethyl-5-(2-((7-methyl-4-oxo-5-azaspiro[2.4]heptan-7-yl)amino)-2-oxoacetyl)-1H-pyrrole-3-carboxamide] | < 50 nM | > 30000 nM | –
